Article PMC2729173 (Cancer research, 2009)
Counter-ions that a name gives are not always drawn. Like-named read-outs stand apart in the source and are kept apart here. Each block holds one molecule with its values, some of them ahead of it.

How the values were obtained:
[1] = rat; cited from earlier work
BCRP = molecular target: T1, BCRP (Homo sapiens, UniProt Q9UNQ0); type: cell-based; details: for intracellular topotecan lactone concentration: topotecan 500 ng/mL
T1 sequence (Q9UNQ0 1-655): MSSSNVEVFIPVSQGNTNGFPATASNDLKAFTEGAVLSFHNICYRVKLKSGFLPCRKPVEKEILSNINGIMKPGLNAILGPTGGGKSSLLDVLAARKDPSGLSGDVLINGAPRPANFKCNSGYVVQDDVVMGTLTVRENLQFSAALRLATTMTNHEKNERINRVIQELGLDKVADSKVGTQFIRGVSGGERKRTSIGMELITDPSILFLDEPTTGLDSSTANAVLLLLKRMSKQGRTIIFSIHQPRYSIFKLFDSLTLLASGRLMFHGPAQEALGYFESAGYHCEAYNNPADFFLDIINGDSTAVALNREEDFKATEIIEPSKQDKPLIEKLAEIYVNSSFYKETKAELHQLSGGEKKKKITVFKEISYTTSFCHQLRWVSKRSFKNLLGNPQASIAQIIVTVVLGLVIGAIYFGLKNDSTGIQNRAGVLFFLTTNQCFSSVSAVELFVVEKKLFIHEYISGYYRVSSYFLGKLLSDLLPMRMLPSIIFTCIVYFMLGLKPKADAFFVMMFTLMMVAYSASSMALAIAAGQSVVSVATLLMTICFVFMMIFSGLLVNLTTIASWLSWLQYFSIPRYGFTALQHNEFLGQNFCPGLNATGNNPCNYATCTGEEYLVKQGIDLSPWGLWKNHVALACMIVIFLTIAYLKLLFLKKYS

[2] = Topotecan lactone plasma protein binding; type: in vitro ADME, mice; details: mouse, unbound fraction of plasma topotecan lactone, mean ±SD
[3] = Intracerebral microdialysis of ventricular CSF; details: topotecan 4 mg/kg i.v., three-compartment model
[4] = Intracerebral microdialysis of brain parenchymal ECF; details: topotecan 4 mg/kg i.v.; for ECF CLin-to-CLout ratio of unbound topotecan lactone: three-compartment model; for Kp: mouse, brain ECF (striatum microdialysate) vs plasma, intravenous, 4 mg/kg, ECF-to-plasma AUC ratio of unbound topotecan lactone (AUCu,ECF/AUCu,plasma), mean ±SD; for topotecan lactone ECF concentrations: Mdr1a/b−/− mice

Structure (SMILES): CCCNCCOc1ccc(NC(=O)c2c[nH]c3c2C(=O)CCC3)cc1F [CP-615,003]
accumulation in CSF relative to ECF [1]: 7 fold

topotecan carboxylate detection in cells (BCRP; pH 6): not detected
difference in intracellular topotecan carboxylate accumulation between Saos2-pcDNA and Saos2-BCRP cells (BCRP; pH 8, data not shown): no difference
Structure (SMILES): CCC(O)(C(=O)O)c1cc2n(c(=O)c1CO)Cc1cc3c(CN(C)C)c(O)ccc3nc1-2 (centres unmarked) [Topotecan carboxylate]

fraction unbound ([2]; FVB, wild-type mice): 0.301
fraction unbound ([2]; Bcrp1−/− mice): 0.309
fraction unbound ([2]; Mdr1a/b−/− mice): 0.292
fraction unbound ([2]; Mdr1a/b−/−Bcrp1−/− mice): 0.275
vCSF CLin-to-CLout ratio of unbound topotecan lactone ([3]; Bcrp1−/− mice): 1.59 ± 0.16
vCSF CLin-to-CLout ratio of unbound topotecan lactone ([3]; FVB wild-type mice): 3.01 ± 0.15
vCSF CLin-to-CLout ratio of unbound topotecan lactone ([3]; Mdr1a/b−/− mice): 2.57 ± 0.17
vCSF CLin-to-CLout ratio of unbound topotecan lactone ([3]; Mdr1a/b−/−Bcrp1−/− mice): 0.86 ± 0.04
intracellular topotecan lactone concentration (BCRP; Saos2-BCRP cells, 1-min incubation, pH 6): 0.043±0.005 ng/μg protein
intracellular topotecan lactone concentration (BCRP; Saos2-BCRP cells, 30-min incubation, pH 6): 0.026 ± 0.004 ng/µg
intracellular topotecan lactone concentration (BCRP; Saos2-pcDNA control cells, 1-min incubation, pH 6): 0.063±0.01 ng/μg protein
intracellular topotecan lactone concentration (BCRP; Saos2-pcDNA control cells, 30-min incubation, pH 6): 0.039 ± 0.003 ng/µg
ECF CLin-to-CLout ratio of unbound topotecan lactone ([4]; Bcrp1−/− mice): 0.42 ± 0.06
Kp ([4]; Bcrp1−/−, Bcrp1−/− mice): 0.42 ± 0.06
ECF CLin-to-CLout ratio of unbound topotecan lactone ([4]; FVB wild-type mice): 0.36 ± 0.06
Kp ([4]; FVB, Mdr1a/b−/−Bcrp1−/− mice): 0.89 ± 0.07
topotecan lactone ECF concentrations ([4]; listed as Topotecan lactone): below detectable limits
topotecan lactone ECF concentrations ([4]; listed as topotecan lactone): below the lower limit of detection
ECF CLin-to-CLout ratio of unbound topotecan lactone ([4]; Mdr1a/b−/−Bcrp1−/− mice): 0.89 ± 0.07
Kp ([4]; Mdr1a/b−/−Bcrp1−/−, Mdr1a/b−/−Bcrp1−/− mice): 0.88 ± 0.07
Structure (SMILES): CC[C@@]1(O)C(=O)OCc2c1cc1n(c2=O)Cc2cc3c(CN(C)C)c(O)ccc3nc2-1 [Topotecan, Topotecan hydrochloride]
